Entries after “also recorded” stand apart in the source; their conditions may differ. Read-outs that look alike come from different tables or passages of the source. Positions of bridges follow the written chain, without caps; N, C: chain ends. Non-standard residues stand in square brackets, D forms with d. Residues, ends and D or L forms follow the SMILES beside them.

The target of data set [1] is human sst3 (Homo sapiens, UniProt P32745). The conditions noted are these: cited from earlier work.
Sequence of human sst3 (P32745 whole entry): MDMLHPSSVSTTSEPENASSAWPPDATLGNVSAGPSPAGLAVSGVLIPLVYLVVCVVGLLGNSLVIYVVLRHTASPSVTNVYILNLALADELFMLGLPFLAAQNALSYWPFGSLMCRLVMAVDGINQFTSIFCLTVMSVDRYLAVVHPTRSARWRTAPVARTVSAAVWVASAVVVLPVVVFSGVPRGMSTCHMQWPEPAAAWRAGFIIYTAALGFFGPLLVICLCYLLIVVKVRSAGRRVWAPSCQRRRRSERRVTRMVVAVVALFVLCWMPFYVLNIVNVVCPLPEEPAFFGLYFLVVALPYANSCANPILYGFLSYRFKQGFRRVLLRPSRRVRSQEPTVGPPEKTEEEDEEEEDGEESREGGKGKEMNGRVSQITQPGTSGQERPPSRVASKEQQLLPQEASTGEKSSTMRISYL
Data set [2] has as its target human sst2 (Homo sapiens, UniProt P30874). The conditions noted are these: cited from earlier work.
Data set [3] deals with human sst4 (Homo sapiens, UniProt P31391). The conditions noted are these: cited from earlier work.
Sequence of human sst4 (P31391 whole entry): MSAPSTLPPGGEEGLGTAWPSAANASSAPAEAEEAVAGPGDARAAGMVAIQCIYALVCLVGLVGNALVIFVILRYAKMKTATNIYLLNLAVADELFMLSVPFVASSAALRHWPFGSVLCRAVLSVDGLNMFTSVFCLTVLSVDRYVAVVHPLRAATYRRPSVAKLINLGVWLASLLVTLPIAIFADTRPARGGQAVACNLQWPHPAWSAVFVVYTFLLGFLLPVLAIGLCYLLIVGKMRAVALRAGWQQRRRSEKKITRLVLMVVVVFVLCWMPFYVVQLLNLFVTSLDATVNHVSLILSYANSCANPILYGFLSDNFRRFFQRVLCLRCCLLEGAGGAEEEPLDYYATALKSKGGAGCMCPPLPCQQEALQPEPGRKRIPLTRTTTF
Data set [4] concerns the target human sst1 (Homo sapiens, UniProt P30872). The conditions noted are these: cited from earlier work.
The subject of data set [5] is somatostatin receptor binding sites of Capan-2 cells. Kind of data set: Radioligand assay of ^177Lu-DOTATOC binding after gemcitabine pre-treatment. Type of data set: cell-based, human. The conditions noted are these: 4 days 1 μg/mL pre-treatment and 4 days of replenishment. How it is done: A radioligand assay was performed to evaluate receptor binding by the recognition ligand after pre-treatment of 4 days with 1 μg/mL gemcitabine and 4 days of replenishment.

For data set [6], the system named is Capan-2. Briefly: Apoptosis in Capan-2 cells, with or without gemcitabine pre-treatment. The conditions noted are these: Capan-2, 1 μg/mL, FIG. 7. Type of data set: cell-based, human. An excerpt:
Alpha emitters such as ^213Bi are known to cause G2M arrest and induce apoptosis in cancer cell lines. Experiments were thus performed to evaluate radiation-induced apoptosis and the radiobiological and radiotherapeutical relevance of this mode of cell death in selection of a radionuclide for therapy.
Activation or down regulation of pro- and anti-apoptotic genes influence cancer cell viability, cancer cell sensitivity to chemotherapy and radiotherapy, and tumor development and progression. A variety of chemotherapeutic agents induce cell death via apoptosis. Gemcitabine is known to induce apoptosis primarily due to Bax overexpression, whereas Bcl-xl is known to reduce gemcitabine-induced apoptosis. In contrast, Capan-2 is […] to Fas-mediated apoptosis. […] The data is expressed as ±S.E.M. of mean apoptosis. […] But when combined with radiolabeled DOTATOC, a synergetic effect on induction of apoptosis is observed.

Data set [7] deals with human SSTR subtypes (SSTR1-SSTR5). The note with it: cited from earlier work.
In data set [8] the test system is Capan-2 cells. Briefly: Cell Death Detection ELISA PLUS apoptosis, gemcitabine pre-treated and non-treated Capan-2. It counts as cell-based, human. The conditions noted are these: 72 hours. How it is done: […] Capan-2 cells and non-treated cells were evaluated using CellTiter-Glo® Luminescent Cell Viability Assay (Promega, Madison, Wis.) and Cell Death Detection ELISA^PLUS10× (Roche Applied Sciences, IN) for apoptosis. Cell viability was evaluated at 24 and 48 hours of incubations.
(In general: In an ELISA, binding on a coated surface is turned into a signal by an enzyme label.)

For data set [9], the system named is Capan-2 cells. Kind of data set: CellTiter-Glo Luminescent Cell Viability Assay, gemcitabine pre-treated and non-treated Capan-2. Type of data set: cell-based, human. How it is done:
Effects of 37 kBq and 370 kBq of ^177Lu labeled DOTATOC and DOTA on gemcitabine pre-treated Capan-2 cells and non-treated cells were evaluated using CellTiter-Glo® Luminescent Cell Viability Assay (Promega, Madison, Wis.) and Cell Death Detection ELISA^PLUS10× (Roche Applied Sciences, IN) for apoptosis. Cell viability was evaluated at 24 and 48 hours of incubations.
Background: Cellular ATP, detected with luciferase, serves as a proxy for viable cell number.

The nature of data set [10]: 25 day toxicology in tumor bearing male Lewis rats. It counts as in vivo, Lewis rat. The conditions noted are these: 25 days; 12.6 MBq ^213Bi-DOTATOC group and DOTATOC control group. As to the method:
Toxicology was assessed at 25 days in 4 groups of tumor bearing male Lewis rats (average volume […]). Rats in the first group, Cohort 1, were injected on day 1 only. Rats in second cohort were injected on days 1 and 2, while rats in the third cohort were injected on days 1, 2, and 3. Rats were injected with 2.56 μg, 0.5 μg, 0.5 μg DOTATOC, on day 1, day 2 and day 3, respectively, with a nominal activity of 3.7 MBq. Each dose was divided into 2 injections at 1 hour intervals. The rats received the following cumulative average activities per group: Cohort 1 (N=3) received 4.3±0.7 MBq, Cohort 2 (N=3) received 9.0±0.4 MBq, and Cohort 3 (N=4) received 12.6±0.3 MBq of ^213Bi-DOTATOC. Cohort 4 (N=4) was added as control group and injected twice daily with unlabelled DOTATOC on three consecutive days.
After 24 days, the animals were put into a metabolic cage to collect urine samples for creatinine clearance analysis. Creatine clearance was determined as previously described (20). After 24 hour urine collection, the animals were euthanized with halothane. For blood collection, a cardiac puncture was performed. Blood analysis consisted of hemoglobin (Hgb), hematocrit (Hct), red blood cells (RBC's), and white blood cells (WBC's) with differential, and platelets (Pt's). Additionally T4 and FSH values were assessed using the serum.
Additional groups were then designed to study the effects of the treatment on a somatostatin receptor positive tumor. The first group was designed to study the effects of treatment on large volume tumors (average volume 1720±608 mm^3). This group, Cohort 5 (N=5), received three fractionated doses of ^213Bi-DOTATOC (specific activity 7.4 MBq ^213Bi/1 μG DOTATOC) with a total average cumulative dose of 13.0±0.5 MBq of ^213Bi-DOTATOC. The last cohort, the sixth cohort (N=4), was injected with two fractionated doses, ^213Bi-DOTATOC (specific activity 7.4 MBq ^213Bi/1 μG DOTATOC) with a total average cumulative dose of 22.2±0.7 MBq of ^213Bi-DOTATOC. As described earlier, each dose was divided into 2 injections separated by a 1 hour interval. Tumor response to the treatment was assessed in all cohorts by daily tumor measurements.
Organs were harvested and immediately placed in 10% formalin for a minimum of 48 hours. Following fixation in formalin, bone samples were placed in decalcifying solution for 36 hours. Trimmed organs were sent to the TriCore Laboratories (Albuquerque, N. Mex.) where they were embedded in paraffin, sectioned, and stained with Hematoxylin and Eosin (H and E). Histopathologic evaluation was performed by a board certified veterinary pathologist (DFK) who examined the following organs of each animal: heart, lung, kidneys, testicles, spleen, pancreas, pituitary bone marrow, urinary bladder, adrenals, and two different sections of the liver.
Sections of both the right and left kidneys were examined to determine nephrotoxicity in all cohorts. Bone marrow was examined to evaluate hypoplasia and other lesions in Cohorts 3 and 4. Interstitial nephritis and bone marrow were scored as follows: 0 no lesions, 1 minimal lesions, 2 mild lesions, 3 moderate lesions, and 4 severe lesions.
For the pathology scoring, to evaluate nephrotoxicity on the 6 treatment groups, a frequency analysis was performed in StatXact-5 using the Jonckheere-Terpstra Test. For all other data, graphs and calculations were performed in SigmaStat®-3 and SigmaPlot®-9 as well as Graph Pad Prism®-4 using the t-test. For all statistical tests results were considered significant when p<0.05. Animal biodistribution and tumor volume data are expressed as the average, plus or minus the SEM.

Sequence of human sst1 (P30872 whole entry): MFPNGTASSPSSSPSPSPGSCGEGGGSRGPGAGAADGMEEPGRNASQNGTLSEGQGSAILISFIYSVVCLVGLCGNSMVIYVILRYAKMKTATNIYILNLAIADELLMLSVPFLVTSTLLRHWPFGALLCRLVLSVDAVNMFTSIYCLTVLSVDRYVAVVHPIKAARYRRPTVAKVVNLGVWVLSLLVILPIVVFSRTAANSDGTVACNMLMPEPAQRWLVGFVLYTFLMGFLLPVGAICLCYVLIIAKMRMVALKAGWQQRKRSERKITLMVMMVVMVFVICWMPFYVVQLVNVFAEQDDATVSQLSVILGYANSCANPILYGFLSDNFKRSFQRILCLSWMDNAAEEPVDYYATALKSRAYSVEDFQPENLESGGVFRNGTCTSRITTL
Sequence of human sst2 (P30874 whole entry): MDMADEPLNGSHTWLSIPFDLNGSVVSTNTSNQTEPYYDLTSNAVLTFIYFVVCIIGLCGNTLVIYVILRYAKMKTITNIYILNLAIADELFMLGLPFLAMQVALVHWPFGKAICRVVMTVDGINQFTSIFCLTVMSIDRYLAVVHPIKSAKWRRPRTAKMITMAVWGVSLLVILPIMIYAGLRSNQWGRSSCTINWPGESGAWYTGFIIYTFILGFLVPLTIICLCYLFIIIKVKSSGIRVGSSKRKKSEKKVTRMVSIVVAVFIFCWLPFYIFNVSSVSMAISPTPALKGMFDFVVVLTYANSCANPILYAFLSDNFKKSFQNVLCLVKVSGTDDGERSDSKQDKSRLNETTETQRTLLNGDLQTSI

For the compound `CC(C)[C@@H]1NC(=O)[C@H](CCCCN)NC(=O)[C@@H](Cc2c[nH]c3ccccc23)NC(=O)[C@H](Cc2ccc(O)cc2)NC(=O)[C@@H](NC(=O)[C@H](N)Cc2ccccc2)CSSC[C@@H](C(=O)N[C@@H](Cc2c[nH]c3ccccc23)C(N)=O)NC1=O` [vapreotide, D-Phe-Cys-Tyr-D-Trp-Lys-Val-Cys-Trp-NH2] (H-[dF]CY[dW]KVCW-NH2; disulfide 2-7), the “affinity for sst3” value in [1] was “moderate affinity”. For the same compound, in data set [2], the “affinity for sst2” value is listed as “high affinity”. Also, the “affinity for sst4” value in data set [3] is listed as “moderate affinity”. Further, in [4], the “affinity for sst1” value is listed as “very low affinity”.
`Nc1ccn([C@@H]2O[C@H](CO)[C@@H](O)C2(F)F)c(=O)n1` [gemcitabine, 2′,2′-difluoro-2′-deoxycytidine]: in [5], the “more binding sites than the non-treated Capan-2 cells” value is recorded as roughly 70%. Further, the “induction of apoptosis by itself” value in data set [6] is on record as “does not induce any significant amount of apoptosis”.
Turning to `C[C@@H](O)[C@@H]1NC(=O)[C@H](CCCCN)NC(=O)[C@@H](Cc2c[nH]c3ccccc23)NC(=O)[C@H](Cc2ccccc2)NC(=O)[C@@H](NC(=O)[C@H](N)Cc2ccccc2)CSSC[C@@H](C(=O)N[C@H](CO)[C@@H](C)O)NC1=O` [octreotide, D-Phe-Cys-Phe-D-Trp-Lys-Thr-Cys-Thr-OH], the “affinity for sst3” value in data set [1] is recorded as “moderate affinity; also recorded: lower affinity”. Moreover, the “affinity for sst2” value in data set [2] is reported as “high affinity”. The “affinity for sst4” value is “very low affinity” in data set [3] and “little or no affinity” in [3] (listed as OCT). In addition, in data set [4], the “affinity for sst1” value was “very low affinity”.
On to “SST-24: somatostatin form bound by all 5 human SSTR subtypes; probably a misprint of somatostatin-14”, for which, in data set [7], the “binding to all 5 human SSTR subtypes” value is “high affinity”.
For `CC(C)[C@@H]1NC(=O)[C@H](CCCCN)NC(=O)[C@@H](Cc2c[nH]c3ccccc23)NC(=O)[C@H](Cc2ccc(O)cc2)NC(=O)[C@@H](NC(=O)[C@H](N)Cc2ccc3ccccc3c2)CSSC[C@@H](C(=O)N[C@H](C(N)=O)[C@@H](C)O)NC1=O` [lanreotide, D-βNal-Cys-Tyr-D-Trp-Lys-Val-Cys-Thr-NH2], the “affinity for sst3” value in data set [1] was “moderate affinity; also recorded: lower affinity”. Also, the “affinity for sst2” value in [2] is “high affinity”. In addition, the “affinity for sst4” value is listed as “very low affinity” in data set [3] and “moderate affinity” in data set [3] (listed as LAN). Besides, in [4], the “affinity for sst1” value is on record as “very low affinity”.
Take “SST-28: somatostatin variant that is a 28 amino acid peptide”: in [7], the “binding to all 5 human SSTR subtypes” value was “high affinity”.
Consider `C[C@@H](O)[C@@H]1NC(=O)[C@H](CCCCN)NC(=O)[C@@H](Cc2c[nH]c3ccccc23)NC(=O)[C@H](Cc2ccc(O)cc2)NC(=O)[C@@H](NC(=O)[C@@H](Cc2ccccc2)NC(=O)CN2CCN(CC(=O)O)CCN(CC(=O)O)CCN(CC(=O)O)CC2)CSSC[C@@H](C(=O)N[C@H](CO)[C@@H](C)O)NC1=O` [DOTATOC, [DOTA^0, Tyr^3] octreotide], for which the “effects on the induction of apoptosis” value in [8] (without radiolabel) was “minimal effects”. Further, the “effects on cell viability” value in data set [9] (24 hours, 70 pM and 7 fM, gemcitabine pre-treated and non-treated Capan-2) was “no significant effects”. For the same compound, the “bone marrow analysis (hypoplasia, hyperplasia, lesions)” value in data set [10] was “no lesions”.
Take `O=C([O-])CN1CCN(CC(=O)[O-])CCN(CC(=O)[O-])CCN(CC(=O)[O-])CC1.[177Lu+3].[H+]` [^177Lu-DOTA]: the “effect on apoptosis, gemcitabine pre-treated vs non-treated Capan-2” value in [8] was “Enhancements of radiation induced apoptosis”. Also, the “effects of radiosensitivity induced by gemcitabine pre-treatment on cell viability” value is reported as “can be observed” in [9] (24 hours, higher doses (370 kBq)) and “observed” in data set [9] (48 hours, 370 kBq as well as 37 kBq).
